Measured values taken from patent US20040023962A1, “Use of medicaments” (priority 2000, published 2004).
Where two headings read alike, the source gives them in different places.

Columns and labels:
[1] = Assay of plasma and perilymph for lamotrigine (pharmacokinetic evaluation); type: in vivo; conditions: guinea pig, single oral dose 20 mg/kg; for concentration at 15 h / Tmax / Cmax: male, albino
Method: All solutions were prepared fresh on the day of dosing and stored at 2-8° C., protected from light, between dosing sessions. In order to establish the otoprotective properties of LTG, a pharmacokinetic evaluation study was designed to establish penetration of LTG into guinea pig perilymph and plasma. A total of 17 healthy adult male albino guinea pigs were used. […] Two untreated control animals were also sampled for comparison. […] After the terminal blood sample had been taken, the animal received an overdose of anaesthetic and was decapitated. The bulla was removed and thoroughly cleaned to remove all tissue and fluids. […] Levels of LTG in both plasma and perilymph were determined using a protein precipitation extraction procedure using high performance liquid chromatography (HPLC) with ultraviolet (UV) detection. The LTG retention time was 5.4 minutes and quantification was carried out using peak areas.

[2] = test system: cochlea nerve compound action potential (CAP); test: Otoprotection after acute noise insult: CAP threshold shifts; type: in vivo, guinea pig; conditions: 20 mg/kg about 2 hours before 15 minutes filtered (5-20 KHz) noise; 8, 16, 24 and 30 KHz
Method: Sedation was achieved using an intramuscular injection of 0.5 mL/kg medetomidine followed by an intraperitoneal injection of 6 mL/kg fentanyl approximately 10 minutes later (loss of the pedal reflex was used to determine sufficient sedation for surgery).
The cochlea nerve compound action potential (CAP) was generated in response to discrete acoustic stimuli. It was used to determine both control and treatment related changes in auditory thresholds by measuring changes in CAP latency (milliseconds) and amplitude (μVolts).
Tone ‘pip’ stimuli of 5 millisecond duration were computer generated at 8, 16, 24 and 30 KHz and fed to an attenuator (1 dB resolution). The tone pip was then fed to a Bruel and Kjaer 4192, (microphone) serving as an acoustic driver, which was placed inside an ear speculum coupled to the ear canal. CAP averaging was performed between ×50 to 100 times and the CAP threshold was determined by visual inspection of the recorded time signal. Accuracy was typically between 1-3 dB, using a CAP detection criterion of approximately 1 μV.
Animals were then exposed to 15 minutes filtered (5-20 KHz) free field noise (approximately […]) during which ESAC measurements were made at 5 minute intervals.

[3] = test system: supramaximal electroshock (MES) model; conditions: rat; cited from earlier work

levels in perilymph relative to plasma ([1]; timepoints 1-15 hours): approximately twice
concentration at 15 h ([1]; perilymph, read-out: mean perilymph LTG level after the 15 hour sampling period): 3200 ng/mL
Tmax ([1]; perilymph, read-out: perilymph approximate mean time of maximum concentration (Tmax)): ~2 h
Cmax ([1]; perilymph, read-out: perilymph mean maximum concentration (Cmax)): 6140 ng/mL
concentration at 15 h ([1]; plasma, read-out: mean plasma LTG level after the 15 hour sampling period): 1000 ng/mL
Cmax ([1]; plasma, read-out: mean plasma Cmax): 3590 ng/mL
Tmax ([1]; plasma, read-out: plasma Tmax): 1 h
Compound: Nc1nnc(-c2cccc(Cl)c2Cl)c(N)n1 [LTG, 3,5-Diamino-6-(2,3-dichlorophenyl)-1,2,4-triazine]
CAP threshold shifts after noise versus noise control [2]: mean thresholds were higher in the LTG treated animals and reached statistical significance at 8 kHz
effective oral dose (ED50) [3]: 6.8 mg/kg
